Patent US12036222B2, “Methods of treating cancers overexpressing CARM1 with EZH2 inhibitors and a PARP inhibitor” (The Wistar Institut of Anatomy and Biology, priority 2018, dated 2024)

Legend:
[1] = tested on: CARM1-expressing cell lines (A1847, OVCAR10, and PEO4); assay: Colony formation assay and GSK126 response curves in CARM1-expressing ovarian cancer cell lines; type: cell-based, human
Protocol: In FIG. 4, CARM1 expression in a panel of high-grade ovarian carcinomas is depicted. FIG. 5 illustrates the results of a colony formation assay with a panel of normal and ovarian cancer cell lines with DMSO and with 10 μM of the EZH2 inhibitor GSK126 (Formula (1)).
In FIG. 7, response curves for GSK126 in a panel of normal and ovarian cancer cell lines are shown.
500 to 5,000 cell were plated into a 24 well tissue culture plate and treated with the indicated compounds. Medium was changed every three days with appropriate drug doses for 12 days or until control wells became confluent. Colonies were washed twice with PBS and fixed with 10% methanol and 10% acetic acid in distilled water. Fixed colonies were stained with 0.005% crystal violet. Integrated density was measured using NIH ImageJ software.

[2] = biological target: T1, EZH2 (Homo sapiens, UniProt Q15910); assay: Immunoblot of A1847 cells treated with GSK126 (H3K27Me3 as readout of EZH2 activity); type: cell-based; design: inhibition of the enzymatic activity of EZH2 as indicated by the decrease in H3K27Me3 levels: dose or concentration left out as unconfirmed; details: 72 hours
T1 construct: endogenous in cells; host or cells: A1847 cells (CARM1-high epithelial ovarian cancer line)
Protocol: FIG. 32 illustrates that the EZH2 inhibitor GSK126 decreases H3K27Me3 levels in a dose-dependent manner. A1847 cells were treated with the indicated concentrations of GSK126 for 72 hours and examined for expression of the indicated proteins by immunoblot. Expression of histone H3 and 3-actin was used as a loading control.

[3] = tested on: parental and CARM1 knockout A1847 cells, CARM1 high OVCAR10 cells; assay: Apoptosis markers (Annexin V, cleaved caspase 3, cleaved PARP); type: cell-based, human; details: 10 μM GSK126, 7 days; CARM1-dependent manner
Protocol: FIG. 37 illustrates control parental and CARM1 knockout A1847 cells were treated with 10 μM GSK126 or vehicle for 7 days. Percentage of Annexin V positive apoptotic cells was quantified. *p<0.001 and #p>0.05.
FIG. 38 illustrates levels of cleaved caspase 3 and cleaved PARP in control parental and CARM1 knockout A1847 cells treated with 10 μM GSK126 for 7 days. Expression of 3-actin was used as a loading control.
FIG. 39A illustrates the expression of apoptosis markers cleaved in CARM1 high OVCAR10 cells as a result of treatment with GSK126. CARM1 high OVCAR10 cells were treated with 10 μM GSK126 or vehicle control for 7 days. The expression of apoptosis markers cleaved caspase 3 and cleaved PARP were determined by immunoblot. Expression of β-actin was used as a loading control.
Phosphatidylserine externalization was detected using an Annexin V staining kit (Millipore) following the manufacturer's instructions. Annexin V-positive cells were detected using the Guava System and analyzed with the Guava Nexin software Module (Millipore).

[4] = tested on: CARM1-expressing A1847 tumors; assay: Subcutaneous xenograft model, CARM1-expressing A1847 cells; type: in vivo, NSG mice; details: 50 mg/kg daily i.p., three weeks
Protocol: The protocols were approved by the Institutional Animal Care and Use Committee (IACUC). 5×10^6 control A1847 or A1847 CARM1 knockout cells were unilaterally injected subcutaneously into 6-8-week old female immunocompromised NSG mice (n=5 per group). One week after injection the mice were randomized and treated with vehicle control (20% captisol) or GSK126 (50 mg/kg daily). Tumor size was measured every 3 days for 3 weeks. At end of the experiments, tumors were surgically dissected and tumor burden was calculated based on tumor weight.
EZH2 inhibitors, such as GSK126, are used safely in clinical trials for hematopoietic malignancies (Ribrag et al. Eur J Cancer (2014) 50:197). To determine the effects of EZH2 inhibition in vivo on the growth of CARM1-expressing ovarian tumors, two xenograft models were utilized. In the subcutaneous xenograft models, the injected CARM1-expressing A1847 cells were first allowed to grow for one week to establish the tumors. Mice were then randomized and treated daily with vehicle control or GSK126 (50 mg/kg) by intraperitioneal (i.p.) injection as reported (see, e.g., Bitler et al. Nature Medicine (2015) 21:231-8 and McCabe et al. Nature (2012) 492:108-12). […] To more closely mimic the tumor microenvironment, A1847 cells were orthotopically transplanted into the bursa covering the ovary of immunocompromised NSG mice. […]

[5] = tested on: CARM1-expressing tumors; assay: Immunohistochemistry and qRT-PCR of dissected CARM1-expressing tumors; type: in vivo, mice
Protocol: FIG. 79 illustrates immunohistochemical analysis for serial sections of tumors dissected from the indicated treatment groups where the tumor sections were stained for H3K27Me3, EZH2, cleaved caspase 3, and Ki67. Scale bar=50 μm.
FIG. 80 illustrates histological scoring (H-score) of the indicated proteins that was calculated for 3 separate fields from 5 tumors from 5 individual mice from each of the indicated groups.
FIG. 81 illustrates the expression of the indicated EZH2/BAF155 target genes that was determined by qRT-PCR in the tumors dissected from the indicated treatment groups.
The observed tumor growth suppression in vivo was correlated with the molecular pathways underlying the CARM1-dependent effects of EZH2 inhibition. To do so, immunohistochemical (IHC) analysis was performed for markers of cell proliferation (Ki67), apoptosis (cleaved caspase 3), H3K27Me3 and EZH2. […] Finally, the observed decrease in cell proliferation and increase in apoptosis correlated with the upregulation of the identified CARM1-regulated EZH2/BAF155 target genes such as DAB2, DLC1 and NOXA by the EZH2 inhibitor GSK126 in vivo (FIG. 81).

T1 sequence (Q15910 whole entry): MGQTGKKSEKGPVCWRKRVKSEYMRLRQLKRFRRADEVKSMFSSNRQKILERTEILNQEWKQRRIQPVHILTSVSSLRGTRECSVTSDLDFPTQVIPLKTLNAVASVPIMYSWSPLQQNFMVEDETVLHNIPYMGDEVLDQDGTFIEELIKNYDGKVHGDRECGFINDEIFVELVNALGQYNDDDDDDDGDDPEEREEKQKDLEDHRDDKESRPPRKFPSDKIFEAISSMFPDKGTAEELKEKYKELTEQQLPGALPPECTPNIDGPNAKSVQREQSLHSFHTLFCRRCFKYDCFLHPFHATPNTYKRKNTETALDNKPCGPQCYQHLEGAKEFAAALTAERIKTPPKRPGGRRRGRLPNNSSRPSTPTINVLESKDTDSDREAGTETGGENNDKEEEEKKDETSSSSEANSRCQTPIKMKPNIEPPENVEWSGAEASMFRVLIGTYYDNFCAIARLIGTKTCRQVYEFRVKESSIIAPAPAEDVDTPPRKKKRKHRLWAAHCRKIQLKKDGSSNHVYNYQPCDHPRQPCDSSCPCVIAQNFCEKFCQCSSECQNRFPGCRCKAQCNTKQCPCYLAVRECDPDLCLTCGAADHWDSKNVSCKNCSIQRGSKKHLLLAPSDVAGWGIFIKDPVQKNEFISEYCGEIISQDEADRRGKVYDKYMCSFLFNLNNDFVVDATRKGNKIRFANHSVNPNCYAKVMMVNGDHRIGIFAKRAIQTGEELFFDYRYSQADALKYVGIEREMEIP
T1 sequence (Q15022 whole entry partner): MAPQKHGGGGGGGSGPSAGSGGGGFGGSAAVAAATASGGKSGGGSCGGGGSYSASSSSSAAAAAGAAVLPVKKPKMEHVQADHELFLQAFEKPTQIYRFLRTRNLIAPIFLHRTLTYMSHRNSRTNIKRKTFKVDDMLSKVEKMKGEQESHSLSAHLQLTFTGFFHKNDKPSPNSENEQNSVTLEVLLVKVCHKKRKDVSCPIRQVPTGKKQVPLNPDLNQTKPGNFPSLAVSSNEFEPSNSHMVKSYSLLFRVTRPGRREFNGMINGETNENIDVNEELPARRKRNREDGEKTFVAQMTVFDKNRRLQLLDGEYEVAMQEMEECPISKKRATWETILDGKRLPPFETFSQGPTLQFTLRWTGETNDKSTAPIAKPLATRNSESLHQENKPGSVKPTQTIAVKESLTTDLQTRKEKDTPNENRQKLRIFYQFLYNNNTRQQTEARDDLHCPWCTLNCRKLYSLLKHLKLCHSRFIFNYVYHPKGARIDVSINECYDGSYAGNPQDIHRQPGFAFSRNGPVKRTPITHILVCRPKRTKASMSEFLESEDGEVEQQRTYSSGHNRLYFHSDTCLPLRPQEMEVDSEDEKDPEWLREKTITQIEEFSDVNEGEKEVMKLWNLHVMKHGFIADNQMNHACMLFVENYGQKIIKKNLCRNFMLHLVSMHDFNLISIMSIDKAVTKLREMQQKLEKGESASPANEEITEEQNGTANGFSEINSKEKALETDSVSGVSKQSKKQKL
T1 sequence (O75530 whole entry partner): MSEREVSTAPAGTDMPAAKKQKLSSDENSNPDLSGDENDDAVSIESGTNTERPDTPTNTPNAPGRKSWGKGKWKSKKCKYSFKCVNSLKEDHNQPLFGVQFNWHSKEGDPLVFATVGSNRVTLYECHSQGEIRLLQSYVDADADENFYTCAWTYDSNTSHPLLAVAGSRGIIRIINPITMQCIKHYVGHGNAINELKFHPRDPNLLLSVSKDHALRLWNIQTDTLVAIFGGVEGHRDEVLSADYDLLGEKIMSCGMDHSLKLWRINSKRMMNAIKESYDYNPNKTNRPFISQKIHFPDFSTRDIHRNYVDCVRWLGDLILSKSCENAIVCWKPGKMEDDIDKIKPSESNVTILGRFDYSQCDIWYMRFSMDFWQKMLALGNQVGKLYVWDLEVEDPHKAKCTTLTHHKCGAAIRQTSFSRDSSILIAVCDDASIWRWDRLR

`CC[C@H](C)n1cc(C)c2c(C(=O)NCc3c(C)cc(C)[nH]c3=O)cc(-c3ccc(N4CCNCC4)nc3)cc21` [GSK126, (S)-1-(sec-butyl)-N-((4,6-dimethyl-2-oxo-1,2-dihydropyridin-3-yl)methyl)-3-methyl-6-(6-(piperazin-1-yl)pyridin-3-yl)-1H-indole-4-carboxamide] was tested, and the “sensitivity in colony formation assay” value ([1]; 10 μM GSK126 vs DMSO, panel of normal and ovarian cancer cell lines) was “particular sensitivity of CARM1-expressing cells”, the “IC50 values from GSK126 response curves” value ([1]; CARM1-expressing lines A1847, OVCAR10, PEO4 compared with rest of panel of normal and ovarian cancer cell lines, numbers only in FIG. 8) was “Significantly reduced IC50 values” and the “correlation of cellular response with CARM1 expression levels” value ([1]; panel of EOC cell lines, 10 μM GSK126) was “correlation between CARM1 expression levels and cellular response to GSK126”. For the same molecule, the EZH2 protein levels [2] was “did not affect EZH2 protein levels”, the “expression of CARM1” value [2] was “did not affect the expression of CARM1” and the “inhibition of the enzymatic activity of EZH2 as indicated by the decrease in H3K27Me3 levels” value [2] was over 95%. For the same molecule, the H3K27Me3 levels ([2]; indicated concentrations) was “dose-dependent decrease in H3K27Me3 levels”, the markers of apoptosis [3] was “induced” and the “growth of CARM1-expressing tumors” value [4] was “significantly inhibited the growth”. For the same molecule, the EZH2 staining ([5]; IHC) was “did not affect EZH2 staining”, the H3K27Me3 staining ([5]; IHC) was “decreased” and the “expression of Ki67” value ([5]; IHC) was “decreased the expression of Ki67”. For the same molecule, the “expression of cleaved caspase 3” value ([5]; IHC) was “increased the expression of cleaved caspase 3” and the “expression of EZH2/BAF155 target genes DAB2, DLC1 and NOXA in vivo” value ([5]; qRT-PCR) was “upregulation”.
